In patent publication US20140348861A1, “SYNTHETIC PEPTIDES AND RANDOM COPOLYMERS FOR THE TREATMENT OF AUTOIMMUNE DISORDERS” (NATIONAL INSTITUTE OF IMMUNOLOGY, priority 2011, published 2014):
Non-standard residues stand in square brackets, D forms with d. Primed or numbered codes have the meaning given here. No end group written: not given here. Kβ(3) = beta-amino acid residue (Lys analogue); β3hY = N[C@H](CC(=O)O)Cc1ccc(O)cc1; β3hK = NCCCC[C@H](N)CC(=O)O; β3hV = CC(C)[C@H](N)CC(=O)O; β3hA = C[C@H](N)CC(=O)O; Yβ = β-tyrosine

Legend:
[1] = system: SJL/J mice exhibiting MBP (85-109) induced relapsing remitting form of EAE; assay: Therapeutic activity in MBP (85-109) induced relapsing remitting EAE, treatment from day 11; type: in vivo; conditions: for Therapeutic activity in comparison to GA (Therapeutic activity (Analogs) − Therapeutic activity GA) / Therapeutic activity in comparison to J5 (Therapeutic activity (Analogs) − Therapeutic activity (J5)) / Therapeutic activity = % reduction in cumulative clinical disability score: SJL/J mice, RR EAE; for Therapeutic activity in comparison to GA (Therapeutic activity (Analogs) − Therapeutic activity GA) / Therapeutic activity in comparison to J5 (Therapeutic activity (Analogs) − Therapeutic activity (J5)): 0.1 mg daily for two weeks; for efficacy relative to GA: both treatment and pre-treatment scenarios
Protocol: SJL/J and C57BL6/J mice procured from Jackson's laboratory (Bar Harbor, Me.) were maintained under standard housing conditions in the central animal facility at NII as per institutional ethical committee guidelines. 8-10 week old female SJL/J mice were used throughout the study.
(§1) To induce RR EAE or chronic progressive EAE, SJL/J or C57BL6/J mice were immunized subcutaneously with 0.2 mg of MBP (85-109) or 0.1 mg MOG (35-55) emulsified in CFA and 200 ng of pertussis toxin was injected intraperitoneally on day 0 and day 2 so as to permeablize the blood brain barrier. All the animals in various experimental groups were scored daily for clinical disability on a scale of 0-6 where 0=no neurological symptoms, 1=limp tail, 2=weakness of hind limbs or ataxia, 3=incomplete paralysis of hind limbs, 4=complete paralysis of hind limbs, 5=complete paralysis of all four limbs, 6=dead. Diseased animals were provided easy access to food and water.
GA, J91, J92, S101, S102, S103 for two weeks and scored for clinical disability.

spleenocytes = assay: Th1/Th2 cytokine levels in culture supernates of spleenocytes from treatment groups; type: cell-based, mice; conditions: spleenocytes at the end of four weeks, FIG. 4; for decrease in IFN-γ levels: stimulated 48 h
Protocol: Levels of various cytokines in culture supernates were determined by sandwich ELISA using multiplex cytokine ELISA kit (Millipore). Briefly, 100 μl of cell culture supernates from various groups were incubated with antibody (against various pro and anti-inflammatory cytokines) coated fluorescent polystyrene beads in 96 well microtiter plates, stained with PE-conjugated secondary antibody, provided in the kit and samples were acquired on […] (Bio-rad).
Effect of a group of analogs comprising analogs viz.
Effect of β^3-homo amino acid containing copolymers viz S101, S102 and S103 on Th1/Th2 cytokine balance was studied in comparison to other copolymers viz. GA, J91, J92, for which culture supernates of spleenocytes grown in the presence of various copolymers, were assayed using ELISA to determine the levels of various cytokines. […] Most noteworthy change was in the levels of IL-2 in the S101, S102 and S103 treated groups, where the levels were brought down by 60-70%.

[2] = system: relapsing remitting EAE in SJL/J mice; assay: Prophylactic (pre-treatment) efficacy in relapsing remitting EAE; type: in vivo; conditions: pre-treatment 0.5 mg in IFA; FIG. 2i
Protocol: as §1

HLA DR2 = molecular target: T1, HLA DR2 (Homo sapiens, UniProt P01903+P01911); assay: Inhibition of binding of biotinylated MBP (85-99) to HLA DR2; conditions: 5 μM competitor, 0.5 μM biotinylated MBP (85-99); FIG. 3
T1 construct: endogenous in cells; host or cells: MGAR lymphoblastoid B cell line (IHWG, Seattle)
Protocol: HLA DR2 molecules were affinity purified from MGAR (a lymphoblastoid B cell line expressing HLA DR2 obtained from IHWG, Seattle, Wash. —USA) cell line. Cells were cultured in RPMI 1640 supplemented with 10% FBS, 2 mM glutamine, 50 U/ml penicillin and 50 μg/ml streptomycin. The anti-DR antibody L243 was purchased from Santacruz Biotech.
HLA DR2 was purified to a purity of 90-95% by immunoaffinity purification. Briefly, MGAR cells were detergent solubilized to prepare the membrane fraction which was passed sequentially through sepharose CL-6B, normal mouse serum-affinity-gel, Protein A sepharose CL-4B and L243-protein A sepharose-CL-4B at a flow rate of around 10-11 ml/h. The final eluate was dialyzed against 0.1% deoxycholate, 10 mM Tris-HCl (pH 8.0) and concentrated using centricon concentrators from Millipore. Protein concentration was determined using bicinchoninic acid (BCA) assay (Sigma). The obtained protein fraction was also run on SDS-PAGE gel to confirm identity and purity.
Copolymers (GA, J91, J92, S101 to S109) and peptide analogs (S1-S82) at a final concentration of 5 μM were coincubated with biotinylated MBP (85-99; purchased from Bioconcept Labs Pvt. Ltd. India) at a final concentration of 0.5 μM and HLA DR2 (0.5 μg/sample) molecules for 40 h at 37° C. and transferred to a 96-well microtiter assay plates coated with 1 μg/well purified L243 mAb. Coating of microtiter plates was performed with 100 μl of L243 mAb in PBS for 18 h at 4° C. […] 3,3′,5,5′-tetramethylbenzidine (TMB, substrate for […]) was added to each well and absorbance at 410 nm was recorded on an ELISA reader (TECAN infinite M200).
Ability of analogs viz. […] Most of the analogs designed herein viz.
β^3-homo amino acid containing copolymers viz. […] Copolymers containing β^3-homo amino acids viz.

[3] = in vivo; cited from earlier work
[4] = system: MOG (35-55) induced chronic EAE in C57BL6/J mice; assay: Prophylactic (pre-treatment) efficacy in MOG (35-55) induced chronic EAE; type: in vivo; conditions: FIGS. 2j and 2k
Protocol: as §1

[5] = system: MOG (35-55) induced chronic progressive EAE in C57BL6/J mice; assay: Therapeutic effect in MOG (35-55) induced chronic progressive EAE; type: in vivo; conditions: daily dose of 5 mg/Kg body weight, FIGS. 2e and 2f
Protocol: as §1
Some analogs viz. […] Dosage kinetic experiments with analog S27 representing the group of analogs comprising viz.

[6] = system: MBP (85-109) reactive CD4+ and CD8+ T-cells; assay: Recall (proliferative) response of CD4+ and CD8+ T-cells to MBP (85-109) after pre-treatment; type: cell-based, mice
Excerpt: Spleen derived dendritic cells were isolated to >95% purity using plasmacytoid dendritic cell isolation kit from Miltenyi Biotech. Spleenocytes were isolated from spleen of SJL/J mice, minced and passed through a 70 micron cell strainer (BD Falcon) to get a single cell suspension. The resulting spleenocytes were first depleted of CD3+ T cells and CD 49b/pan NK+ cells using LD depletion columns provided in the kit. The CD3 and CD 49b negative cell population was collected, counted and positive selection of CD11c+ dendritic cells was performed on positive selection columns provided in the kit. The CD11c+ population was collected by removing the column from the magnetic stand, stained with trypan blue to check the viability and purity was determined using flow cytometry.
After two weeks spleenocytes were isolated, fractioned into CD4+ and CD8+ T-cells, cultured with MBP (85-109) pulsed spleen derived dendritic cells and assayed for proliferation (^3[H]-thymidine). […] As recall response to MBP (85-109) is a direct measure of frequencies of MBP (85-109) reactive CD4+ or CD8+ T-cells, in the immunized animals.

[7] = synthetic peptides, 0.1 mg daily for two weeks from day 11 post-immunization

T1 sequence (P01903 26-254): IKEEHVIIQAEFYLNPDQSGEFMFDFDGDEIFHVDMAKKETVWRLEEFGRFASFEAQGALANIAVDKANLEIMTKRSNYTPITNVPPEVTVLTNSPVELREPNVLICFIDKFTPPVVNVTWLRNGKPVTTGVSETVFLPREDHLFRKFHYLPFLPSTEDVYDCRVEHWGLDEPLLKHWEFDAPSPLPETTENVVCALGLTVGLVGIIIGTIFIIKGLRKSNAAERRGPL
T1 sequence (P01911 30-266): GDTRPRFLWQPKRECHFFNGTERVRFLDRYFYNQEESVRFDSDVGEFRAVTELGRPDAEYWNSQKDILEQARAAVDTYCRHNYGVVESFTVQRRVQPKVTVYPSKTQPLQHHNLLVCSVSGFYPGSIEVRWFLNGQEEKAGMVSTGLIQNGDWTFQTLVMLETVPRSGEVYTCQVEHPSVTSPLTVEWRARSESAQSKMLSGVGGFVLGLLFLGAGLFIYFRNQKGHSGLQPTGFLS

Row | Substance | Therapeutic activity in comparison to GA (Therapeutic activity (Analogs) − Therapeutic activity GA) [1] [%] | Therapeutic activity in comparison to J5 (Therapeutic activity (Analogs) − Therapeutic activity (J5)) [1] [%] | Therapeutic activity = % reduction in cumulative clinical disability score [1, 7] [%] | other results
1 | EKPKVEAYKAAAAPA [Analog J5, reference compound] | 3.957 | 0 | 35.29 | change in IL-4 levels (spleenocytes): only a marginal increase; effect on clinical onset of disease [2]: no effect on clinical onset of disease
2 | Eβ^3Kβ^3Pβ^3Kβ^3Vβ^3Eβ^3Aβ^3Yβ^3Kβ^3Aβ^3Aβ^3Aβ^3Aβ^3Pβ^3Aβ^3 [Analog S15] | 30.91 | 26.95 | 62.25 | efficacy relative to GA [1]: approximately two times better; delay of clinical onset of disease [2]: ~3 days
3 | FPFNVPTNIVKVERH (Peptide analog) [scrambled MBP (85-99)] | – | – | – | inhibition of binding of biotinylated MBP (85-99) to HLA DR2 (HLA DR2): ~15%
4 | Glatiramer Acetate [GA, reference compound] | 0 | −3.957 | 31.3369 | Therapeutic activity = % reduction in cumulative clinical disability score ([1]; amino acid copolymers, 0.1 mg daily for two weeks from day 11): 27.12%; decrease in IFN-γ levels (spleenocytes): approximately 70%; rise in IL-4 levels (spleenocytes): ~2 fold; success rate in reducing the relapses [3]: 30%; inhibition of binding of biotinylated MBP (85-99) to HLA DR2 (HLA DR2): ~21%; effect on clinical onset of disease [2]: no effect on clinical onset of disease
5 | Kβ^3Vβ^3Eβ^3Aβ^3Yβ^3Kβ^3Aβ^3Aβ^3Aβ^3Aβ^3 ([β3hK][β3hV]X[β3hA][β3hY][β3hK][β3hA][β3hA][β3hA][β3hA]; not fully specified (residue 3); printed as Kβ^3Vβ^3Eβ^3Aβ^3Yβ^3Kβ^3Aβ^3Aβ^3Aβ^3Aβ^3) [Analog S27] | 33.8 | 29.84 | 65.13 | duration of effect once the treatment is stopped ([1]; FIG. 2b): up to two weeks; efficacy relative to GA [1]: approximately two times better; optimum daily dosage ([1]; dosage kinetic experiments, rodents, FIGS. 2c and 2d): 5 mg/kg body weight; decrease in IFN-γ levels (spleenocytes): approximately 70%; change in IL-4 levels (spleenocytes): only a marginal increase; suppression after pre-treatment [4]: 55-60%; reduction in clinical disability score [5]: ~60%; inhibition of binding of biotinylated MBP (85-99) to HLA DR2 (HLA DR2): approximately 60%; delay of clinical onset of disease [2]: ~3 days; recall response to MBP (85-109), CD4+ T-cell fraction (3[H]-thymidine proliferation) ([6]; 0.5 mg in IFA a day before immunization, spleenocytes after two weeks, FIG. 1a): considerable suppression; recall response to MBP (85-109), CD8+ T-cell fraction, suppression compared to J5 or GA treated group ([6]; 0.5 mg in IFA a day before immunization, spleenocytes after two weeks, FIG. 1b): much more pronounced; recall response to purified protein derivative (PPD) ([6]; specificity control antigen, FIGS. 1a and b): remained unaffected
6 | VEAYKβ^3 (VEAY[β3hK]) [Analog S35] | −6.952 | −10.9091 | 24.39 | –
7 | VEAYβKβ (VEA[Yβ][Kβ(3)]) [Analog S74] | −9.947 | −13.9037 | 21.39 | –
8 | VEAYβ^3Kβ^3 (VEA[β3hY][β3hK]) [Analog S36] | −2.46 | −6.417 | 28.88 | –
9 | VEAβYβKβ [Analog S75] | −5.5615 | −9.519 | 25.7754 | –
10 | VEAβ^3Yβ^3Kβ^3 [Analog S37] | −0.9626 | −4.92 | 30.37 | –
11 | VEβAβYβKβ [Analog S76] | −7.914 | −11.8717 | 23.42 | –
12 | VEβ^3Aβ^3Yβ^3Kβ^3 [Analog S38] | −4.813 | −8.77 | 26.52 | –
13 | VβEAYβKβ [Analog S78] | −11.9037 | −15.861 | 19.43 | –
14 | VβEβAβYβKβ [Analog S77] | −18.8235 | −22.7808 | 12.51 | –
15 | Vβ^3EAYβ^3Kβ^3 [Analog S40] | 13.9 | 9.947 | 45.24 | –
16 | Vβ^3Eβ^3Aβ^3Yβ^3Kβ^3 [Analog S39] | 9.519 | 5.561 | 40.86 | –
